Measurements reported in patent US9931380B2, “Medicament for treating olfaction disorder” (priority 2015, dated 2018).

Assays:
[1] = Blood sugar level of DM (STZ) mice given the insulin preparation; assay type: in vivo, C57BL/6 mice; details: intraperitoneally once a day, 2 to 3 U/kg of insulin detemir
Procedure: (§1) To C57BL/6 mice (normal mice; Japan SLC, Inc) at the age of 10 weeks, 120 mg/kg of streptozotocin (STZ; Sigma-Aldrich) was administered intraperitoneally for three days in a row, on Days 0 (Initial administration), 1, and 2. On Day 7, those with a fasting blood glucose (fasting blood sugar level: FBS) of 250 mg/dl or more were defined as DM mice in which pancreatic β cells were specifically impaired. Moreover, subsequent operations used those with a blood sugar of more than 250 mg/dl at any time after about one week since the administration of STZ.
As the insulin preparation, “Levemir FlexPen (Registered Trademark)” was used (referred to as Levemir). Levemir was administered intraperitoneally into DM mice once a day, with 2 to 3 U/kg of the insulin detemir each. […] The amount of insulin given here was therefore regarded as the amount that can properly resolve the shortages of insulin in the DM mice. The olfactory epithelium tissues of groups of DM mice (group a, group b, and group c) were observed 14 days after the administration of methimazole (Refer to FIGS. 9A and 9B): Each group differs on the time when insulin was additionally given. […] Then, with the use of the above-described method, the number of olfactory nerve cells (OSNs) of olfactory epithelium, the thickness of olfactory epithelium, and the number of OMP positive cells were counted in each group. […]

olfactory epithelium = experiment: Regeneration of olfactory epithelium in DM model mice with methimazole-induced olfactory disturbance after insulin administration; assay type: in vivo, C57BL/6 mice; details: for number of olfactory nerve cells, DM mice vs normal mice / thickness of olfactory epithelium, DM mice vs normal mice / number of mature olfactory nerve cells (number of OMP positive cells), DM mice vs normal mice: read 14 days after methimazole
Procedure: as §1
To each of positive control mice, which were created by giving only physiological saline to normal mice, and DM mice, 80 mg/kg of methimazole (Siyma-Aldrich) was administered intraperitoneally in order to create model mice with olfactory disturbance. The model mice with olfactory disturbance were created as metabolites of methimazole selectively damaged olfactory epithelium. The mechanism of olfactory disturbance is considered to be the activation of caspase that induces apoptosis in olfactory cells. When normal mice were given methimazole, the damaged olfactory epithelium could recover to the almost normal level about 28 days after the administration. Moreover, normal mice that were given physiological saline instead of methimazole were used as control. Their weight and blood sugar levels of tail veins were measured 28 days after the methimazole injection.
The hearts of mice were perfused with 4% paraformaldehyde in 0.1M phosphate buffer. The mice were sacrificed and fixed 24 hours later with the same fixative. Nostril tissues containing OE were decalcified with a 10% EDTA solution (pH 7.0), and were embedded in paraffin. Coronal sections (with thickness of 4 μm) were cut off and put on silane-coated slides. The deparaffinized sections were autoclaved for 10 minutes in Target Retrieval Solution (S1700; Dako) for antigen retrieval. Immunohistochemistry was conducted with one of the following antibodies: Anti-insulin receptors, anti-phosphorylated insulin receptors, anti-olfactory marker proteins (OMP, goat polyclonal, 1:4000 dilution; Wako Chemicals), anti-activated caspase-3 (rabbit polyclonal, 1:5000; Cell Signaling Technology), anti-Ki-67 (mouse monoclonal, 1:500; BD Biosciences), and anti-c-fos antibodies (Rabbit IgG, 1:1000; Santa Cruz Biotechnology).
In order to suppress the variation of data values that could be caused by anatomical changes (e.g. aerated nasal turbinate) between mice and in the mice, the OE analysis was conducted in such a way as to be limited to OE (olfactory epithelium) of the nasal septum and nasal turbinate's top on the right and left sides in the nasal cavity.
Sections were cut at intervals of 500 μm. The olfactory epithelium included the following two cell lines: Olfactory nerve cells (OSNs) and basal stem cells. Rectangular cells on lamina propria in OE were defined as basal cells. The rest of the cells were defined as OSNs. The thickness, or distance from the lamina propria to the surface, was measured with software known as ImageJ. The number of OSNs labeled with anti-OMP, anti-activated caspase-3, and anti-Ki-67 antibody was quantitatively analyzed by uniquely immunostaining for each antigen and using sections counterstained with hematoxylin. As for connective tissues under the lamina propria, the immunostaining of cells with an intermediate background intensity more than double the standard deviation was regarded as being positive. The number of OSNs and the number of immunostained cells (OMP-positive cells, Ki-67-positive cells, and caspase-3 positive cells) were measured along the total length of the nasal septum in microscopic observation images (of each of normal groups and STZ groups) for both the left and right sides. […]

[2] = group a: 3 U/kg i.p. day 1 to 14
[3] = group b as printed: 3 U/kg i.p. day 1 to 7
[4] = group b: 3 U/kg i.p. only day 1 to 7, 14 days after onset of disturbance
[5] = groups a (day 1 to 14) and c (day 7 to 14), 3 U/kg i.p., 14 days after onset of disturbance

## insulin detemir [Levemir]
[1]
  blood sugar levels: around 130 mg/dl
Olfactory epithelium; [2]
  number of olfactory nerve cells, DM mice vs normal mice: no significant difference
  thickness of olfactory epithelium, DM mice vs normal mice: no significant difference
Olfactory epithelium; group a: 3 U/kg i.p. every day, day 1 to 14 after methimazole
  number of mature olfactory nerve cells (number of OMP positive cells), DM mice vs normal mice: broadly comparable to normal mice
Olfactory epithelium; [3]
  number of olfactory nerve cells, DM mice vs normal mice: no significant difference
  thickness of olfactory epithelium, DM mice vs normal mice: no significant difference
Olfactory epithelium; group b as printed: 3 U/kg i.p. only day 1 to 7 after methimazole
  number of mature olfactory nerve cells (number of OMP positive cells), DM mice vs normal mice: broadly comparable to normal mice
Olfactory epithelium; [4]
  number of OMP positive cells, compared with groups a and c: significant decreases
  number of OSNs, compared with groups a and c: significant decreases
  thickness of olfactory epithelium, compared with groups a and c: significant decreases
Olfactory epithelium; [5]
  number of OMP positive cells: no significant differences
  number of OSNs: no significant differences
  thickness of olfactory epithelium: no significant differences
